Assay results from US20160194718A1, “Compositions and Methods for Identification, Assessment, Prevention, and Treatment of Cancer Using Histone H3K27ME3 Biomarkers and Modulators” (DANA-FARBER CANCER INSTITUTE, INC., priority 2013, published 2016).

Tests used:
H3K27me3 = assay: Western blotting of B cell colonies for H3K27me3; assay type: cell-based, mouse
Description: Western blotting was performed as described in Yoda et al. (2010) Proc. Natl. Acad. Sci. U.S.A. 107:252-257. Image J (available on the World Wide Web at imagej.nih.gov/ij) was used for quantitation of immunoblots, with band intensity normalized to total H3.
(§1) GSK-J4 (KDM6A/UTX and KDM6B/JMJD3 inhibitor, catalog #M60063-2) (Kruidenier et al. (2012) Nature 488:404-408) and GSK-126 (EZH2 inhibitor, catalog #M60071-2) (McCabe et al. (2012) Nature 492:108-112) were purchased from Xcessbio. For methylcellulose experiments, at each passage DMSO, GSK-J4, or GSK-126 were added to cultures a final concentration of 1 μM. DS-ALLs (deidentified specimens obtained with informed consent under DFCI IRB protocol 05-001) were treated In vitro in quadruplicate with GSK-J4 at two-fold dilutions from 40 nM to 10 μM in RPMI with 20% calf serum supplemented with 10 ng/mL IL3, IL7, SCF, FLT3 ligand, and 50 μM beta-mercaptoethanol. After 3 days, viability was measured using CellTiter-Glo reagent and normalized to DMSO control (Promega).

wild-type B cells = assay: Methylcellulose B cell colony forming / repassaging assay with drug; assay type: cell-based, mouse
Description: Whole bone marrow was harvested from 6-8-week-old mice, and red blood cells were lysed. Cells were plated in B cell (Methocult M3630, Stem Cell Technologies) or myeloid (Methocult M3434) methylcelluose media in gridded 35 mm dishes. Myeloid colonies were plated at 2×10^4 cells/ml per passage. B cell colonies were plated at 2×10^5 cells/ml in passage 1, and at 5×10^4 cells/ml per subsequent passage. Colonies were counted at 7 days, and colonies were then pooled and replated in the same manner.
as §1

Ts1Rhr B cells = assay: as above; assay type: cell-based, mouse; conditions: 1 μM added at each passage
Description: as §1, with “Whole bone marrow was harvested from 6-8-week-old mice, and red blood cells were lysed. Cells were plated in B cell (Methocult M3630, Stem Cell Technologies) or myeloid (Methocult M3434) methylcelluose media in gridded 35 mm dishes. Myeloid colonies were plated at 2×10^4 cells/ml per passage. B cell colonies were plated at 2×10^5 cells/ml in passage 1, and at 5×10^4 cells/ml per subsequent passage. Colonies were counted at 7 days, and colonies were then pooled and replated in the same manner. GSK-J4 (KDM6A/UTX” for “GSK-J4 (KDM6A/UTX”

[1] = tested on: human primary macrophages; conditions: 10 μM; cited from earlier work
DS-ALLs = DS-ALLs treated in vitro with GSK-J4, viability by CellTiter-Glo; assay type: cell-based; conditions: Homo sapiens, 72 h; five DS-ALLs, 3 days, two-fold dilutions 40 nM to 10 μM, normalized to DMSO; read-out: IC50 values for GSK-J4 across a panel of DS-ALLs
Description: as §1

[2] = 1 μM, passage 2 colonies after 14 total days in culture

Row | Compound | H3K27me3 in wild-type B cells (H3K27me3; [2]) | loss of H3K27me3 after withdrawal of compound (H3K27me3; wild-type cells, one passage (7 days) after removal) | indefinite repassaging in wild-type B cells (wild-type B cells; 1 μM added at each passage) | indefinite repassaging after withdrawal of compound (wild-type B cells; wild-type cells, withdrawal at passage 5) | indefinite repassaging (Ts1Rhr B cells) | colony-forming activity (Ts1Rhr B cells; vs DMSO) | lipopolysaccharide-induced proinflammatory cytokine production [1] | H3K27me3 in Ts1Rhr B cells (H3K27me3; [2]) | IC50 (DS-ALLs)
1 | CC[C@H](C)n1cc(C)c2c(C(=O)NCc3c(C)cc(C)[nH]c3=O)cc(-c3ccc(N4CCNCC4)nc3)cc21 [GSK-126, (S)-1-(sec-butyl)-N-((4,6-dimethyl-2-oxo-1,2-dihydropyridin-3-yl)methyl)-3-methyl-6-(6-(piperazin-1-yl)pyridin-3-yl)-1H-indole-4-carboxamide] | decreased H3K27me3 | reversible | sufficient to confer indefinite repassaging | reversible | – | – | – | – | –
2 | CCOC(=O)CCNc1cc(N2CCc3ccccc3CC2)nc(-c2ccccn2)n1 [GSK-J4, ethyl 3-((6-(4,5-dihydro-1H-benzo[d]azepin-3(2H)-yl)-2-(pyridin-2-yl)pyrimidin-4-yl)amino)propanoate] | – | – | – | – | blocked indefinite repassaging | decreased colony-forming activity | reduces | increased H3K27me3 | 1400 to 2500 nM
